The values that follow come from BindingDB's records for doi:10.1002/cbic.200400192 (Max-Planck-Institut FÜR Molekulare Physiologie, 2005).

Each structure is given as a SMILES string.

Assay in all cases: Inhibition Assay
In experiment [1] the target is Vascular endothelial growth factor receptor 3 (Homo sapiens, UniProt P35916). The method, then: (§1) The kinase-catalyzed phosphorylation of poly(Glu4-Tyr) in the presence of varying concentrations of inhibitor was determined. The kinase were employed as fusion proteins of glutathion-S-transferase (GST) and the kinase domain. The relative amount of phosphorylated substrate was quantified by antiphosphotyrosine enzyme-linked immunosorbent assay.

In experiment [2] the target is Vascular endothelial growth factor receptor 2 (Homo sapiens, UniProt P35968). The method, then: as §1
A further experiment has as its target Angiopoietin-1 receptor (Homo sapiens, UniProt Q02763). The method, then:
as §1

Experiment [3] deals with Insulin-like growth factor 1 receptor (Homo sapiens, UniProt P08069). The method, then: as §1
Experiment [4] has as its target Fibroblast growth factor receptor 1 (Homo sapiens, UniProt P11362). The method, then: as §1
In experiment [5] the target is Epidermal growth factor receptor (Homo sapiens, UniProt P00533). The method, then:
as §1

Epidermal growth factor receptor, sequence (P00533 whole entry): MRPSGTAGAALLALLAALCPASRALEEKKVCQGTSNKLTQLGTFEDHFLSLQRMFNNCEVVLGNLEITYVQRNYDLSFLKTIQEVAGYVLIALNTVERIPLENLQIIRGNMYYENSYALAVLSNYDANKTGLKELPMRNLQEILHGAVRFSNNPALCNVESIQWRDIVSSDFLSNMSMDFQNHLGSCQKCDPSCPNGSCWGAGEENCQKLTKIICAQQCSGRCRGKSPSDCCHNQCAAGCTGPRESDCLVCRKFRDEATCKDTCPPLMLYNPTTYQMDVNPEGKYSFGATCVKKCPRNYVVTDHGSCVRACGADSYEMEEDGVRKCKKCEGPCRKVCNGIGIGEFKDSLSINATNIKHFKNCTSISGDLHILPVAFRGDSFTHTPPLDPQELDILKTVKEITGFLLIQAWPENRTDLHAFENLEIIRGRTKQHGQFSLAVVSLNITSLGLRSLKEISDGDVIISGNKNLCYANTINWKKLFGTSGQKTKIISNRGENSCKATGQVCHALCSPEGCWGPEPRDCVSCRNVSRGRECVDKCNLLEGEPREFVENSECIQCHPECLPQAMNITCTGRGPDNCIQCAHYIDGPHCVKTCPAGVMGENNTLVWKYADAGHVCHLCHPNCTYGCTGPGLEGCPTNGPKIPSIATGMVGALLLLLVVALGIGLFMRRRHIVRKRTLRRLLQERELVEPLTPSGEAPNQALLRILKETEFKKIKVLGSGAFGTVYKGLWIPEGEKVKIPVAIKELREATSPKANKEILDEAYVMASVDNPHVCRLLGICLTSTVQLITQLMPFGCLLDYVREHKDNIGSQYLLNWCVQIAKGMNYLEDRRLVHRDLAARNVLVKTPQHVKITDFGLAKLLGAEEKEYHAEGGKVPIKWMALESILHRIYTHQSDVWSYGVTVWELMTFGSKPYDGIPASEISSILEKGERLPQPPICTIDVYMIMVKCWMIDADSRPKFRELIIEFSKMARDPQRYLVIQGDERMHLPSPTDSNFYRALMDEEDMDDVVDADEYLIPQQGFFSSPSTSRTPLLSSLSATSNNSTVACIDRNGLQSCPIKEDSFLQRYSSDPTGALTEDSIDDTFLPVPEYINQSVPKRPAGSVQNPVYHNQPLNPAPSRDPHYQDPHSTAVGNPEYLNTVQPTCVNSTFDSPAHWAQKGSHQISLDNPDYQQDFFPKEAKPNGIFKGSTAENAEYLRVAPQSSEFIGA
Insulin-like growth factor 1 receptor, sequence (P08069 31-736 limits assumed): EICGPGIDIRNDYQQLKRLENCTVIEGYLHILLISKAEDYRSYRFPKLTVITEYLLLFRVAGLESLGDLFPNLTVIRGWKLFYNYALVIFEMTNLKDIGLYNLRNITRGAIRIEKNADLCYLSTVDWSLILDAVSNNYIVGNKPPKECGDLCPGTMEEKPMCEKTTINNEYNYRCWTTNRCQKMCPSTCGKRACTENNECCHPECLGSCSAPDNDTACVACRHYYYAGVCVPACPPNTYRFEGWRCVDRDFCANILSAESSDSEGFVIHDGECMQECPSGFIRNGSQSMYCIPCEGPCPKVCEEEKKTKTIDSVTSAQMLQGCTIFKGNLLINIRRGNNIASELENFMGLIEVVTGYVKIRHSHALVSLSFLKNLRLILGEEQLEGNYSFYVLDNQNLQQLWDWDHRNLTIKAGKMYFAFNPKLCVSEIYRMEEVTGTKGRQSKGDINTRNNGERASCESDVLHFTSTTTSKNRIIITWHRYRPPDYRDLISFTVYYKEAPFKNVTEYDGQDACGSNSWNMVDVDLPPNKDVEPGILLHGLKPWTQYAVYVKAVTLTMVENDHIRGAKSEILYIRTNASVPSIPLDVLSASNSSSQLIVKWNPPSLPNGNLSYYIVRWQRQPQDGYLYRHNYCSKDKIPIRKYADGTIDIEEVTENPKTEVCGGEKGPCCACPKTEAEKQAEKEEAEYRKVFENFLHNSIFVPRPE
Insulin-like growth factor 1 receptor, sequence (P08069 741-1367 limits assumed): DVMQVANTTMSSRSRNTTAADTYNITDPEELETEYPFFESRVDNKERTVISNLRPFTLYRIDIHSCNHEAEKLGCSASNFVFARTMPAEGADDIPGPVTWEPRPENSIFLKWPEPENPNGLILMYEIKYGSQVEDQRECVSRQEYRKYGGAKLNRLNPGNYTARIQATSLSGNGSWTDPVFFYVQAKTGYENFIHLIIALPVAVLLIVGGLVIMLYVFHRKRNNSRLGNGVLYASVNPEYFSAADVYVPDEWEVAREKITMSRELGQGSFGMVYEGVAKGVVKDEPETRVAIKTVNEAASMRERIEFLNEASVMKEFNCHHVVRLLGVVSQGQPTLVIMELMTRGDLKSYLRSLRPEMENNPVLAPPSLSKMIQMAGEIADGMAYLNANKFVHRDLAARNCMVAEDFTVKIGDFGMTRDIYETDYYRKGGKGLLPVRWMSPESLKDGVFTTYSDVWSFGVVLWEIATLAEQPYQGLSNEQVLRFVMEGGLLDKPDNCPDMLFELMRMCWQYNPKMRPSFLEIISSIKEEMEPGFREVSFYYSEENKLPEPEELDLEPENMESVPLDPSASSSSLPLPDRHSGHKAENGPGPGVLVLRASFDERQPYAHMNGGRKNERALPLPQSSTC
Vascular endothelial growth factor receptor 3, sequence (P35916 whole entry, the tested form may be a part): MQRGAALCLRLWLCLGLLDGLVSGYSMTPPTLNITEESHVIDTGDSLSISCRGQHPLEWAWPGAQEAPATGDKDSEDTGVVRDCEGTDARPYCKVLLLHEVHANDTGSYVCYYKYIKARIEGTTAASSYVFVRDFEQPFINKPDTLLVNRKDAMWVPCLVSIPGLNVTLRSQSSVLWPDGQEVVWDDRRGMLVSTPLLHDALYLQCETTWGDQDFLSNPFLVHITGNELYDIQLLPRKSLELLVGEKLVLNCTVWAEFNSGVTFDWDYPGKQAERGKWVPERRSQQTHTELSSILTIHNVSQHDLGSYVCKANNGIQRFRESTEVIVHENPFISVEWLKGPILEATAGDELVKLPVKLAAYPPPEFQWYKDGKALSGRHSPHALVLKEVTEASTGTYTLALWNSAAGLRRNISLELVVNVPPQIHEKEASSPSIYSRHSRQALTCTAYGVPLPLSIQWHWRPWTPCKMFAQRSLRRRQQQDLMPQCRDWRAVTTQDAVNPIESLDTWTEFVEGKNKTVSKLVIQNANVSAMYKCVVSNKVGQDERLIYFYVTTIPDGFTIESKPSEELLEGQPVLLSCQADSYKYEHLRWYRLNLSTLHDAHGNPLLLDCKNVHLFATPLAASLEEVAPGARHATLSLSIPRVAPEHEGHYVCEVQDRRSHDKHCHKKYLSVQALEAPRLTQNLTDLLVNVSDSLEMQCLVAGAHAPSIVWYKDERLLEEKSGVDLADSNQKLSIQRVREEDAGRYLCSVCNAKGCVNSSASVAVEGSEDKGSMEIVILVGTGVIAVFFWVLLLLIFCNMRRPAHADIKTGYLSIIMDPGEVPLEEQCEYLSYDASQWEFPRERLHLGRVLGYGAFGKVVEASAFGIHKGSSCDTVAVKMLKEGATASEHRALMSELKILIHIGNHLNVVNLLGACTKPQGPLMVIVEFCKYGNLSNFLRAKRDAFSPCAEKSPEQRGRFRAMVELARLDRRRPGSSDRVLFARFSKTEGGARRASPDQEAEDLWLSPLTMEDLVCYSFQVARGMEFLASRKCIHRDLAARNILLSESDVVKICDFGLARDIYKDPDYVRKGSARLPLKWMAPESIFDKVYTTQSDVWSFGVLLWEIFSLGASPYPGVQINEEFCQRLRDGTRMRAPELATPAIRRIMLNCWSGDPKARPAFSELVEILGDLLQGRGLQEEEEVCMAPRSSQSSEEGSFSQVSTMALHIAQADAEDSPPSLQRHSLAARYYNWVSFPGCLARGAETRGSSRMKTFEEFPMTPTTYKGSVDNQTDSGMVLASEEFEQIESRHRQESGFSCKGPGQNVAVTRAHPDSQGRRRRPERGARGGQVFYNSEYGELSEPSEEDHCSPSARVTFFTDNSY
Angiopoietin-1 receptor, sequence (Q02763 whole entry): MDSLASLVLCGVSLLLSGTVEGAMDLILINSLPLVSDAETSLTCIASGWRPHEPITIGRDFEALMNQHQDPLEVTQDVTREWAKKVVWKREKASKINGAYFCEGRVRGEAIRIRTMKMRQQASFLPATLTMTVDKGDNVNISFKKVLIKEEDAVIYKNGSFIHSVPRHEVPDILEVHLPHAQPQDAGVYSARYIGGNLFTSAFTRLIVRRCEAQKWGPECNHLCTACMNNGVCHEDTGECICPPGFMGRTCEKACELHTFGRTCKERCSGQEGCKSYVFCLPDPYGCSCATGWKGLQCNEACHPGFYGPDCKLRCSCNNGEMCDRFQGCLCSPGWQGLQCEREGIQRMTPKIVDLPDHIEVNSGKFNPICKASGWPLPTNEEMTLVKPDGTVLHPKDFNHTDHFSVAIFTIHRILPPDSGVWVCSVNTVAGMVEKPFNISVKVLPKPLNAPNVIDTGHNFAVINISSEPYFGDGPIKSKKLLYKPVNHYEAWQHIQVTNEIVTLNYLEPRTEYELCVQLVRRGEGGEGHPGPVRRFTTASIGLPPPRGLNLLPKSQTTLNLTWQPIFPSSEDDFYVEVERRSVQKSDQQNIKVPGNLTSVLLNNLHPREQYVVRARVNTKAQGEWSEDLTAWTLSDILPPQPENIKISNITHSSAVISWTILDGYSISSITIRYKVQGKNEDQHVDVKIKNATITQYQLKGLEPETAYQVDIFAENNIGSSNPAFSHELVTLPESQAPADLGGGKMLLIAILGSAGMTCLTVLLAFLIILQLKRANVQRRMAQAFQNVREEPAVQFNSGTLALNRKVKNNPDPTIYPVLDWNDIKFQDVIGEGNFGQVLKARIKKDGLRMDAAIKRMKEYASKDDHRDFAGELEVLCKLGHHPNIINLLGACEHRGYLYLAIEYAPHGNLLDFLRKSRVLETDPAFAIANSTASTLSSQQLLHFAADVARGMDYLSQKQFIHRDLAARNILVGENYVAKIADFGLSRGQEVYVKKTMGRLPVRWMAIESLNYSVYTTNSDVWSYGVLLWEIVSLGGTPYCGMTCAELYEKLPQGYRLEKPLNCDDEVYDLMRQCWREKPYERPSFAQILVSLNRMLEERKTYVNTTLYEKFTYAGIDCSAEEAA

For the compound `CC1=C(CC(=O)O)c2cc(F)ccc2/C1=C\c1ccsc1` [Sulindac analogue, 13], the IC50 (usually the concentration that inhibits the measured activity by half) in experiment [1] amounted to 15 µM; in experiment [2], 14 µM; against Angiopoietin-1 receptor, 0.6 µM.

In turn, `CCC1=C(CC(=O)O)c2cc(F)ccc2/C1=C\c1ccc(OCc2ccccc2)cc1` [Sulindac analogue, 16] yielded an IC50 against Angiopoietin-1 receptor of 2 µM.

On to `CC1=C(CC(=O)O)c2cc(F)ccc2/C1=C\c1cccs1` [Sulindac analogue, 12], for which, on Angiopoietin-1 receptor, the IC50 came out at 5 µM.

`CC1=C(CC(=O)O)c2ccc(Br)cc2/C1=C/c1ccsc1` [Sulindac analogue, 20]: the IC50 in experiment [3] was found to be 71 µM; against Angiopoietin-1 receptor, 11 µM.

For `CCC1=C(CC(=O)O)c2cc(F)ccc2/C1=C\c1ccoc1` [Sulindac analogue, 15], the IC50 came to 3 µM in experiment [4], 0.9 µM in experiment [5], 5 µM in experiment [2] and 1 µM at Angiopoietin-1 receptor.

At Angiopoietin-1 receptor, `CC1=C(CC(=O)O)c2cc(F)ccc2/C1=C\c1ccc(F)c(F)c1` [Sulindac analogue, 10] gave an IC50 of 5 µM.

Turning to `CC1=C(CC(=O)O)c2cc(I)ccc2/C1=C\c1cccc(OCc2ccccc2)c1` [Sulindac analogue, 22], the IC50 on Angiopoietin-1 receptor is 7 µM.

Consider `CCC1=C(CC(=O)O)c2cc(C#Cc3ccccc3)ccc2/C1=C\c1ccsc1` [Sulindac analogue, 24], for which, on Angiopoietin-1 receptor, the IC50 was 5 µM.

As to `CC1=C(CC(=O)O)c2ccc(Br)cc2/C1=C\c1ccoc1` [Sulindac analogue, 21], the IC50 in experiment [1] stood at 15 µM; in experiment [5], 22 µM; in experiment [2], 24 µM; in experiment [3] it was 13 µM; at Angiopoietin-1 receptor it was 3 µM.

With `CC1=C(CC(=O)O)c2ccc(Br)cc2/C1=C\c1ccsc1` [Sulindac analogue, 19], the IC50 in experiment [1] was found to be 4 µM; in experiment [4], 23 µM; in experiment [5], 12 µM; in experiment [2], 3 µM; in experiment [3], 4 µM; against Angiopoietin-1 receptor it was 1 µM.

Regarding `CC1=C(CC(=O)O)c2cc(F)ccc2/C1=C\c1ccoc1` [Sulindac analogue, 14], it took 8 µM to reach half-maximal inhibition in experiment [2] (IC50).

For the compound `CC1=C(CC(=O)O)c2cc(Cl)ccc2/C1=C\c1ccoc1` [Sulindac analogue, 17], the IC50 was 14 µM in experiment [1], 8 µM in experiment [5], 7 µM in experiment [3] and 5 µM against Angiopoietin-1 receptor.

For the compound `CC1=C(CC(=O)O)c2cc(F)ccc2/C1=C\c1cccc(OCc2ccccc2)c1` [Sulindac analogue, 11], half-maximal inhibition against Angiopoietin-1 receptor (IC50) was put at 11 µM.

Compound `CCC1=C(CC(=O)O)c2cc(/C=C/C(=O)OC(C)(C)C)ccc2/C1=C\c1ccsc1` [Sulindac analogue, 23] displayed an IC50 against Angiopoietin-1 receptor of 5 µM.

As to `CC1=C(CC(=O)O)c2cc(Br)ccc2/C1=C\c1ccccc1` [Sulindac analogue, 18], on Angiopoietin-1 receptor, the IC50 stood at 1 µM.
